The structures appear in SMILES notation.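 Results reflect a 48-hour exposure of cells in 96-well plates to compound at five concentrations. GI50 is the concentration that inhibits growth by half. TGI marks complete inhibition of growth.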 Where only a bound is given, the exact number is not on record here.

The first test concerns KM12 colon. As to the kind of experiment: growth of human tumour cells (NCI), 48 h.
As for `O=c1n(-c2ccccc2)c(=O)n2n1C1C=CC2C2C(C1)C2(Cl)Cl` (stereo unspecified), the TGI was over 100 µM.
Same read-out and setting: for `Cc1ccc(Cn2c(C)nc3c2C(=O)c2ccccc2C3=O)cc1` the value was over 100 µM; for `Cc1c(Cl)cccc1N1C(=O)C(Cl)=C(Cl)C1=O`, over 100 µM.
On the same count and under the same terms, for `COc1ccc(NC(=O)/C(N=O)=C(/C)O)cc1` the value was over 100 µM.
For `COc1cccc(/C=N/[N-]C(=O)c2ccncc2)c1[O-].[Cu+2].[OH3+]`, the GI50 was over 100 µM and the TGI was over 100 µM.
For `COc1ccc(C(O)c2nccn2C)c(OC)c1` (stereo unspecified), the TGI is over 100 µM.
Still for that read-out and setting: for `C1CSCCSCCS1` the value was over 100 µM.
On the same count and under the same terms, for `CCc1c(OC(C)=O)c2c(NC3OC(COC(C)=O)C(OC(C)=O)C(OC(C)=O)C3OC(C)=O)nc(OC)nc2oc1=O` (stereo unspecified) the value was over 100 µM; for `O=C(NC(=O)c1cn(CCNCCO)c(=O)[nH]c1=O)OCc1ccccc1`, over 100 µM; for `O=[N+]([O-])c1ccc(-n2nnc(C3=NCCN3)c2-c2ccc(Cl)cc2)cc1`, over 100 µM.
Same read-out and setting: for `CCSc1[nH]c(Nc2nc(-c3ccccc3)n(-c3ccccc3)n2)c(C(N)=O)c1C(N)=O` the value was over 10 µM; for `CCC1C2C=CC(CC2)N1S(=O)(=O)c1ccc(C)cc1` (stereo unspecified), over 100 µM.
On to `CCOc1ccc(N2C(=O)/C(=C/c3ccc(N(CCC#N)CCC#N)cc3)N=C2c2cc([N+](=O)[O-])ccc2Cl)cc1`, for which the TGI amounted to 55.3 µM.
Same read-out and setting: for `COc1ccc(-c2cc(-c3ccccc3)c(C#N)c(=O)n2C2OC(CO)C(O)C(O)C2O)cc1` (stereo unspecified) the value was over 100 µM.
The same measure, in the same setting: for `CCOC(=O)C1(c2ccccc2)CCC(=O)CC1` the value was over 100 µM; for `O=C(N/N=C1/C(=O)N(c2ccc(Cl)cc2Cl)C(=O)C(=O)C1c1nc2ccccc2o1)c1ccccc1O` (stereo unspecified), over 100 µM.
Still for that read-out and setting: for `CC(=O)O[C@H]1CCC2[C@@H]3CCC4=C(O)c5nocc5C[C@]4(C)C3CC[C@@]21C` (stereo partly specified) the value was over 100 µM; for `O=C(O)CSc1n[nH]c(-c2ccccc2)n1`, over 100 µM.
Turning to `O=c1cc2oc3cc(O)c(O)cc3c(-c3ccccc3O)c-2cc1O`, the GI50 was 30.7 µM and the TGI is over 100 µM.
As to `CCCCCCC[CH2][Sn]1([CH2]CCCCCCC)[O]C(=O)c2cccnc2[S]1`, the GI50 was over 100 µM and the TGI was over 100 µM.
`O=C1[C@@H]2C3c4ccccc4C([C@@H]2C(=O)N1c1ccccc1)S3(=O)=O` had a TGI of over 100 µM.
Same read-out and setting: for `COc1ccc(/C(=N\NC(=O)C(N)=O)C(c2ccc(OC)cc2)C2(O)C(=O)Nc3c(Cl)cccc32)cc1` (stereo unspecified) the value was over 100 µM; for `Cc1ccc(S(=O)(=O)N/N=C/c2oc(-c3ccncc3)c(-c3ccncc3)c2[N+](=O)[O-])cc1`, over 100 µM; for `CCOc1ccc2c(c1)[n+]([O-])c(-c1ccccc1Cl)c(N)[n+]2[O-]`, over 100 µM.
The same measure, in the same setting: for `O=C1c2ccccc2C2(O)c3cc4ccccc4cc3OC12O` (stereo unspecified) the value was over 100 µM; for `CN(C)c1c([O-])c(=[N+](C)C)c1=O`, over 100 µM.

The test system of a further test is NCI-H522 lung. As to the kind of experiment: growth of human tumour cells (NCI), 48 h.
For `c1ccc(SC2CCSc3ccccc3C2Sc2ccccc2)cc1` (stereo unspecified), the TGI is over 100 µM.
Take `COC(=O)[C@]1(C)CCCC2(C)C1CC[C@H]1C=C(C)[C@H]3CCC12C3` (stereo partly specified): the TGI was over 100 µM.
On the same count and under the same terms, for `O=C(Nc1cc(Cl)ccc1Cl)c1cc2cccc(Cl)c2oc1=O` the value was over 100 µM; for `O=c1n(-c2ccccc2)c(=O)n2n1C1C=CC2C2C(C1)C2(Cl)Cl` (stereo unspecified), over 100 µM; for `Cc1ccc(Cn2c(C)nc3c2C(=O)c2ccccc2C3=O)cc1`, 18.1 µM.
Still for that read-out and setting: for `Cc1c(Cl)cccc1N1C(=O)C(Cl)=C(Cl)C1=O` the value was 27.9 µM; for `COc1ccc(C(O)c2nccn2C)c(OC)c1` (stereo unspecified), over 100 µM; for `C1CSCCSCCS1`, over 100 µM.
In turn, `O=C(NC(=O)c1cn(CCNCCO)c(=O)[nH]c1=O)OCc1ccccc1` registered a TGI of over 100 µM.
The same measure, in the same setting: for `O=[N+]([O-])c1ccc(-n2nnc(C3=NCCN3)c2-c2ccc(Cl)cc2)cc1` the value was over 100 µM; for `CCC1C2C=CC(CC2)N1S(=O)(=O)c1ccc(C)cc1` (stereo unspecified), 61.5 µM.
The same measure, in the same setting: for `COc1ccc(-c2cc(-c3ccccc3)c(C#N)c(=O)n2C2OC(CO)C(O)C(O)C2O)cc1` (stereo unspecified) the value was over 100 µM.
On the same count and under the same terms, for `CCOC(=O)C1(c2ccccc2)CCC(=O)CC1` the value was over 100 µM; for `O=C(N/N=C1/C(=O)N(c2ccc(Cl)cc2Cl)C(=O)C(=O)C1c1nc2ccccc2o1)c1ccccc1O` (stereo unspecified), 87.7 µM; for `CC(=O)O[C@H]1CCC2[C@@H]3CCC4=C(O)c5nocc5C[C@]4(C)C3CC[C@@]21C` (stereo partly specified), over 100 µM.
`O=C(O)CSc1n[nH]c(-c2ccccc2)n1` gave a TGI of over 100 µM.
Regarding `CCCCCCC[CH2][Sn]1([CH2]CCCCCCC)[O]C(=O)c2cccnc2[S]1`, the GI50 is over 100 µM and the TGI is over 100 µM.
The compound `O=C1[C@@H]2C3c4ccccc4C([C@@H]2C(=O)N1c1ccccc1)S3(=O)=O` returned a TGI of over 100 µM.
The same measure, in the same setting: for `Cc1ccc(S(=O)(=O)N/N=C/c2oc(-c3ccncc3)c(-c3ccncc3)c2[N+](=O)[O-])cc1` the value was over 100 µM.
Same read-out and setting: for `CCc1cccc(C)c1NC(=O)C(=O)Cc1nc2ccccc2o1` the value was over 100 µM.
Still for that read-out and setting: for `O=C(O)[C@H](NS(=O)(=O)c1ccc2ccccc2c1)c1ccccc1` the value was over 100 µM.
As for `CCOc1ccc2c(c1)[n+]([O-])c(-c1ccccc1Cl)c(N)[n+]2[O-]`, the TGI came to 33.8 µM.
For `O=C1c2ccccc2C2(O)c3cc4ccccc4cc3OC12O` (stereo unspecified), the TGI is over 100 µM.
Same read-out and setting: for `CN(C)c1c([O-])c(=[N+](C)C)c1=O` the value was over 100 µM.

The next test has as its system NCI-H226 lung. Kind of test: growth of human tumour cells (NCI), 48 h.
`c1ccc(SC2CCSc3ccccc3C2Sc2ccccc2)cc1` (stereo unspecified) had a TGI of over 100 µM.
Same read-out and setting: for `COC(=O)[C@]1(C)CCCC2(C)C1CC[C@H]1C=C(C)[C@H]3CCC12C3` (stereo partly specified) the value was over 100 µM; for `O=c1n(-c2ccccc2)c(=O)n2n1C1C=CC2C2C(C1)C2(Cl)Cl` (stereo unspecified), over 100 µM.
Still for that read-out and setting: for `Cc1ccc(Cn2c(C)nc3c2C(=O)c2ccccc2C3=O)cc1` the value was 33.7 µM; for `CCOC(=O)C(C)(C)Oc1ccc2c(C)c(-c3ccc(Cl)cc3)c(=O)oc2c1`, 80.6 µM.
On the same count and under the same terms, for `Cc1c(Cl)cccc1N1C(=O)C(Cl)=C(Cl)C1=O` the value was over 100 µM; for `COc1ccc(NC(=O)/C(N=O)=C(/C)O)cc1`, over 100 µM.

The record behind these values is PubChem BioAssay (NCI).
